{
  "source": "patent US5766914A",
  "about": "“Method of producing and purifying enzymes” (Michigan State University, priority 1995, dated 1998)",
  "key": {"[1]": {"target": "native β-galactosidase (soluble; lacZ of Escherichia coli) (Escherichia coli, UniProt P00722)", "sequence (P00722 2-1024 limits assumed)": "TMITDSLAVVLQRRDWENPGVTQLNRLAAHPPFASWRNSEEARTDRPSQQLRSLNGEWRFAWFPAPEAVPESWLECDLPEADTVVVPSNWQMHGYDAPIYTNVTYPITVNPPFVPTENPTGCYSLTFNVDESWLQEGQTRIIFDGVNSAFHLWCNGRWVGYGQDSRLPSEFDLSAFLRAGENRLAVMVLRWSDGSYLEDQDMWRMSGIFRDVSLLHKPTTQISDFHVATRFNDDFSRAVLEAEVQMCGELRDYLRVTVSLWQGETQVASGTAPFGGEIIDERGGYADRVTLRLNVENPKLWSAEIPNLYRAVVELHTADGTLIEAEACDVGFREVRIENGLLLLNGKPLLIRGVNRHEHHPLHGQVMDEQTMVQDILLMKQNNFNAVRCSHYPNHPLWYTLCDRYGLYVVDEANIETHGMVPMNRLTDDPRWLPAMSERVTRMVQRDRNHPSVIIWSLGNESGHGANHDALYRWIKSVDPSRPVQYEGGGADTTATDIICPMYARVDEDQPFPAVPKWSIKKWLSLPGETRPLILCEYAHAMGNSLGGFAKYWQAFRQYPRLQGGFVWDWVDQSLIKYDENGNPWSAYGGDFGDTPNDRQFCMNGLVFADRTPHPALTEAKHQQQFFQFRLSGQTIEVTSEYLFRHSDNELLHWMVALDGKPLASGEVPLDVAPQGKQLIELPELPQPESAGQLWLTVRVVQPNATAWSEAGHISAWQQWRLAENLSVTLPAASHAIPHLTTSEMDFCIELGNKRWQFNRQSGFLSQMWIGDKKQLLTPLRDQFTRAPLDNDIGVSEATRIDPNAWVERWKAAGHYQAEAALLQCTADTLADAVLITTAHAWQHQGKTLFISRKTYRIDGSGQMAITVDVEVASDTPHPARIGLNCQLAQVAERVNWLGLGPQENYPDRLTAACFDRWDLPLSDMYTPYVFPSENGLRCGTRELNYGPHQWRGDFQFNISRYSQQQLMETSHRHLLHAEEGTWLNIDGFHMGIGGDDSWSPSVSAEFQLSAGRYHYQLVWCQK", "experiment": "β-galactosidase assay, KM for ONPG, native enzyme", "type": "biochemical", "conditions": "0.1M sodium phosphate pH 7.5, room temperature, Michaelis-Menten curve through normalized data, FIG. 3", "description": "(§1) β-galactosidase assay. The assay is based on that of Sambrook, et al. (J. Sambrook, et al., \"Molecular Cloning (A laboratory manual)\", 2nd Ed. Cold Spring Harbor Laboratory Press, Cold Spring Harbor, New York, 1989) with minor modifications. The assay mixture contains 0.1M sodium phosphate, pH 7.5, containing 3 mM o-nitrophenyl β-D-galactopyranoside […] (ONPG), 40.5 mM 2-mercaptoethanol and 90 μM MgCl2 in a total volume of 600 μL. Reactions were initiated by addition of enzyme, and carried out at room temperature unless otherwise noted. Activity was determined from the slopes of initial rates monitored at 420 nm. O-nitrophenol, the product of β-galactosidase-catalyzed hydrolysis of ONPG, has a molar extinction coefficient at 420 nm under assay conditions of 3.1×10^3 M^-1 cm^-1 (R. C. Weast, \"Handbook of Chemistry and Physics\", 60th ed. CRC Press, Boca Raton, Fla., 1979). β-galactosidase activity is reported in units of μmol ONPG hydrolyzed/min.\nCatalytic properties of β-galactosidase in the spore coat. FIG. 3 diagrams KM values for native β-galactosidase (.circle-solid.) and the CotC-β-galactosidase fusion in the spore coat of spores from the cotC-lacZ fusion strain (.box-solid.). Data sets were normalized to the same Vmax value, set equal to 100. […]"}, "[2]": {"system": "CotC-β-galactosidase fusion (47 codons of B. subtilis cotC, SEQ ID NO:4, fused to E. coli lacZ) in the spore coat of spores from the cotC-lacZ fusion strain of …", "experiment": "β-galactosidase assay, KM for ONPG, spore-immobilized fusion", "type": "biochemical, Escherichia coli / Bacillus subtilis", "conditions": "0.1M sodium phosphate pH 7.5, room temperature, Michaelis-Menten curve through normalized data, FIG. 3", "description": "as §1\ncot-lacZ fusions. Strains bearing the cotC-lacZ and cotD-lacZ fusions were generously provided by L. Kroos. […]\nThe cotC-lacZ fusion includes 355 bp upstream of the open reading frame of cotC and 47 codons of the open reading frame fused in frame to lacZ from plasmid pSGMU31. The cotD-lacZ fusion includes 237 upstream bp and 58 codons of the open reading frame of cotD. […]"}},
  "data": [
    {"smiles": "O=[N+]([O-])c1ccccc1O[C@@H]1O[C@H](COP(=O)(O)O)[C@H](O)[C@H](O)[C@H]1O", "note": "[ONPG, o-nitrophenyl β-D-galactopyranoside 6-phosphate]", "values": [
      {"measurement": "Km", "setting": "[1]", "result": 400, "unit": "µM"},
      {"measurement": "Km", "setting": "[2]", "result": 400, "unit": "µM"}
    ]}
  ]
}
